Source: patent US5098708A
Values after ≈ are worked out from the molar mass of the structure shown. Read-outs that look alike come from different tables or passages of the source.

Experiments:
[1] = tested on: herpes simplex virus type 1 (HSV-1); experiment: microbe, parasite or virus in culture; assay type: cell-based; conditions: for ID50 HSV-Vero cell: Table 8, 72 hours incubation, 50% inhibition of cytopathic effect
influenza virus A = experiment: microbe, parasite or virus in culture; assay type: cell-based; conditions: 72 hours incubation, 50% inhibition of cytopathic effect; for ID50 Influenza virus-MDCK cell: Table 8; for IC50: unidentified influenza virus, MDCK, 72 h
HIV antigen = experiment: Expression of HIV antigen in infected MT-4 cells by immunofluorescence; assay type: cell-based
Experimental: Expression of HIV antigen was examined by immunofluorescence. When MT-4 cells were infected with HIV, viral antigen positive cells increased with incubation time and all the cells became positive on day 6 after infection.

[2] = tested on: reverse transcriptase (RTase) derived from avian myeloblastosis virus (AMV); assay type: biochemical
[3] = Solubility in water and organic solvents; assay type: physicochemical
Vero cell = conditions: Table 8; 50% cytotoxicity against Vero cell without viral infection; 4320 min
uninfected CEM cells = conditions: human, 7200 min
Experimental: The cells and the virus were grown in LAV/CEM medium. The medium consists of RPMI 1640, supplemented with 1% L-glutamine, 100 U/ml of Penicillin, 100 μg/ml Streptomycin, 2 μg/ml Polybrene and 10% heat-inactivated fetal bovine serum (HyClone Labs).
The toxicities of the drugs were tested against uninfected CEM cells. The CEM cells were plated as described above, and culture for five days in the presence or absence of drugs. On day five 1 μCi/well of ^3 H-thymidine was added, and cells were harvested 3 hours later. The results are expressed as toxic dose 50 (TD50) and represent the amount of drug necessary to reduce the cell proliferation by 50% as measured through thymidine incorporation.

[4] = tested on: human immunodeficiency virus (HIV) LAV/BRU; conditions: CEM-F cells; drug amount reducing viral replication by 50%
Experimental: AZT was included as a reference compound. The methodology used in this assay is described below:
The cells and the virus were grown in LAV/CEM medium. The medium consists of RPMI 1640, supplemented with 1% L-glutamine, 100 U/ml of Penicillin, 100 μg/ml Streptomycin, 2 μg/ml Polybrene and 10% heat-inactivated fetal bovine serum (HyClone Labs). […] The virus was adapted to CEM cells, and infectious virus stocks were stored as cell-free supernatant fluids in 1 ml aliquots in liquid nitrogen. The titer of the stock was determined by an end point titration method using CEM cells in 96-well microtiter plates. The titration was done with ten replicates for each point, and the 50% tissue culture infective dose (TCID50) was calculated using the method of Reed and Muench (Amer. J. Hygiene, 27/3 (1938) 493-497).
The CEM cells (1.5×10^5 cells/ml) were placed in 96-well plates and incubated with virus for 45 minutes. After 45 minutes each compound was added in quadruplicate. At the end of the day, six supernatants were tested for presence of viral core protein p24gag in an antigen capture ELISA (Genetic Systems Company). The OD readings (absorbance at 450/630 nm) fall into three categories: Experimentals=values from wells containing cells, viral inoculum and drug; Controls=values from wells with cells and virus (100%); and Background=values from wells with viral inoculum alone. […]

[5] = tested on: Madin Darby canine kidney (MDCK) cell; experiment: Drug-induced cytotoxicity against MDCK cells without viral infection (dye-uptake assay); conditions: Table 8; 50% cytotoxicity against MDCK cell without viral infection; 4320 min
[6] = tested on: human immunodeficiency virus (LAVBRU strain); experiment: Anti-HIV XTT assay in CEM-SS cells; assay type: cell-based; conditions: Human immunodeficiency virus 1, 144 h, six days post infection, read-out: ED50 (XTT assay)
Source text: The antiviral effect is expressed as the concentration of compound which increases the number of viable cells in infected cultures to 50% that of the untreated, uninfected control cultures (ED50) The cellular toxicity is expressed as the concentration of compound which reduces the number of viable cells to 50% that of the untreated control (TD50).

[7] = Cellular toxicity in CEM-SS cells (XTT assay); assay type: cell-based; conditions: human
Source text: CEM-SS cells were obtained from Owen Weislow at the National Cancer Institute.

in vitro = conditions: monkey, vero cells
[8] = Drug-induced cytotoxicity against MDCK cells without viral infection (dye-uptake assay); conditions: dog, mdck cells, TD50 Influenza virus-MDCK cell

SMILES: C/C1=C\C=C\C2(C)C=C(CO[C@H]3O[C@H](CO)[C@H](O)[C@H](O)[C@H]3O)C(C)CC23OC(O)C(C3=O)C(O)/C=C/C2(C)C=C(C=O)C(C)CC23OC(O)C(C3=O)C(O)/C(C)=C/C=C/C2C=C(CO[C@H]3O[C@H](CO)[C@H](O)[C@H](O)[C@H]3O)C(C)CC23OC(O)C(C3=O)C(O)/C=C/C2(C)C=C(C=O)C(C)CC23OC(O)C(C3=O)C1O (stereo partly shown)
- ID50 HSV-Vero cell [1]: 11 µg/mL (≈ 7.3 µM)
- ID50 Influenza virus-MDCK cell (influenza virus A): 150 µg/mL (≈ 99.5 µM)
- HIV antigen positive cells (suppression) (HIV antigen; HIV-infected MT-4 cells cultured in the presence of compound): significantly suppressed
- HIV antigen positive cells (HIV antigen; HIV-infected MT-4 cells, concentration higher than 50 μg/ml, FIG. 10): less than 1%
- AMV reverse transcriptase % inhibition ([2]; 3 μg/ml): 96.9%
- AMV reverse transcriptase activity, count ([2]; 3 μg/ml): 1,584 ± 1,292 cpm
- AMV reverse transcriptase % inhibition ([2]; 6 μg/ml): 98.1%
- AMV reverse transcriptase activity, count ([2]; 6 μg/ml): 976 ± 145 cpm
- AMV reverse transcriptase % inhibition ([2]; 12.5 μg/ml): 98.2%
- AMV reverse transcriptase activity, count ([2]; 12.5 μg/ml): 920 ± 271 cpm
- AMV reverse transcriptase % inhibition ([2]; 25 μg/ml): 98.8%
- AMV reverse transcriptase activity, count ([2]; 25 μg/ml): 621 ± 402 cpm
- AMV reverse transcriptase % inhibition ([2]; 50 μg/ml): 99.5%
- AMV reverse transcriptase activity, count ([2]; 50 μg/ml): 235 ± 73 cpm
- AMV reverse transcriptase % inhibition ([2]; 100 μg/ml): 99.7%
- AMV reverse transcriptase activity, count ([2]; 100 μg/ml): 159 ± 14 cpm
- Inhibition of 1 unit of AMV RTase activity ([2]; concentrations higher than 3 μg/ml): more than 95%
- Solubility in acetone [3]: slightly soluble
- Solubility in dimethylformamide and dimethyl sulfoxide [3]: soluble
- Solubility in methanol [3]: slightly soluble
- Solubility in other organic solvents [3]: practically insoluble
- Solubility in water [3]: soluble
- TD50 HSV-Vero cell (Vero cell): > 400 µg/mL
- TD50 (thymidine incorporation) (uninfected CEM cells): > 100 µg
- ED50 (p24gag antigen capture assay) [4]: 3.2 µg
- TD50 Influenza virus-MDCK cell [5]: 250 µg/mL

SMILES: C/C1=C\C=C\C2C=C(CO[C@H]3O[C@H](CO)[C@H](O)[C@H](O)[C@H]3O)C(C)CC23OC(O)C(C3=O)C(O)/C=C/C2(C)C=C(CO)C(C)CC23OC(O)C(C3=O)C(O)/C(C)=C/C=C/C2(C)C=C(CO[C@H]3O[C@H](CO)[C@H](O)[C@H](O)[C@H]3O)C(C)CC23OC(O)C(C3=O)C(O)/C=C/C2(C)C=C(C=O)C(C)CC23OC(O)C(C3=O)C1O (stereo partly shown)
- ID50 HSV-Vero cell [1]: 11 µg/mL (≈ 7.29 µM)
- ID50 Influenza virus-MDCK cell (influenza virus A): > 150 µg/mL
- Solubility in acetone [3]: slightly soluble
- Solubility in dimethylformamide and dimethyl sulfoxide [3]: soluble
- Solubility in methanol [3]: slightly soluble
- Solubility in other organic solvents [3]: practically insoluble
- Solubility in water [3]: soluble
- TD50 HSV-Vero cell (Vero cell): > 200 µg/mL
- TD50 (thymidine incorporation) (uninfected CEM cells): > 100 µg
- ED50 (p24gag antigen capture assay) [4]: 2.5 µg
- TD50 Influenza virus-MDCK cell [5]: 150 µg/mL

SMILES: Cc1cn([C@H]2C[C@H](N=[N+]=[N-])[C@@H](CO)O2)c(=O)[nH]c1=O [AZT]
- EC50 [6]: 0.005 µg/mL (≈ 0.0187 µM)
- CC50 at 144 h [7]: > 500 µg/mL
- TD50 (thymidine incorporation) (uninfected CEM cells): 4.2 µg

SMILES: Nc1nc2c(ncn2COCCO)c(=O)[nH]1 [Acyclovir]
- IC50 ([1]; Human alphaherpesvirus 1, Vero, 72 h, read-out: ID50 HSV-Vero cell): 0.09 µg/mL (≈ 0.4 µM)
- CC50 at 72 h (in vitro): > 100 µg/mL

SMILES: NC(=O)c1ncn([C@@H]2O[C@H](CO)[C@@H](O)[C@H]2O)n1 [Ribavirin, reference compound]
- IC50 (influenza virus A; read-out: ID50 Influenza virus-MDCK cell, Table 8): 15 µg/mL (≈ 61.4 µM)
- IC50 (influenza virus A; read-out: ID50 Influenza virus-MDCK cell, Table 10): 9.5 µg/mL (≈ 38.9 µM)
- CC50 at 72 h ([8]; Table 8, 50% cytotoxicity against MDCK cell without viral infection): > 200 µg/mL
- CC50 at 72 h ([8]; Table 10, 50% cytotoxicity against MDCK cells without viral infection): > 100 µg/mL
